# Reference: article PMC4955735 (Anesthesiology, 2016)
# Like-named read-outs stand apart in the source and are kept apart here.
# Key:
# [1] = tested on: S.typhimurium TA 1535
# [2] = tested on: S.typhimurium TA 100
# [3] = tested on: S.typhimurium TA 1537; test: Bacteria reverse mutation assay
# [4] = tested on: S.typhimurium TA 98; test: Bacteria reverse mutation assay
# [5] = tested on: THP-1, HepG2 and HEK293 cell lines; test: In vitro cell assays; format: cell-based; settings: 0.16 mM to 2.5 mM
# [6] = humans; cited from earlier work
# [7] = rodents; cited from earlier work
# [8] = tested on: rats; test: Escalating phenylephrine infusion during continuous ketamine infusion; format: in vivo, rat; settings: phenylephrine 4 to 10 μg/kg/min during steady state shallow ketamine anesthesia; n=3
structure (smiles),measurement,setting,value
"Nc1ccc2cc3ccccc3cc2c1 [2-AA, 2-Aminoanthracene, reference compound]","number of colonies, positive control","[1]; TA 1535, +S9, 10 μg 2-Aminoanthracene per plate",2-AA 91
same,"number of colonies, positive control","[2]; TA 100, +S9, 10 μg 2-Aminoanthracene per plate",2-AA 1307
same,"number of colonies, positive control","[3]; TA 1537, +S9, 10 μg 2-Aminoanthracene per plate",2-AA 141
same,"number of colonies, positive control","[4]; TA 98, +S9, 10 μg 2-Aminoanthracene per plate",2-AA 1101
"COc1ccc2nc3cc(Cl)ccc3c(NCCCNCCCl)c2c1 [191-A, ICR 191 Acridine, reference compound]","number of colonies, positive control","[3]; TA 1537, −S9, 1 μg ICR 191 Acridine per plate",191-A 250
"COc1cccc2c1C(=O)c1c(O)c3c(c(O)c1C2=O)C[C@@](O)(C(C)=O)C[C@@H]3O[C@H]1C[C@H](N)[C@H](O)[C@H](C)O1 [D-myc, Daunomycin, reference compound]","number of colonies, positive control","[4]; TA 98, −S9, 6 μg Daunomycin per plate",D-myc 505
"CC(O)COC[C@H]1O[C@@H]2O[C@H]3[C@H](O)[C@@H](O)[C@@H](O[C@H]4[C@H](O)[C@@H](O)[C@@H](O[C@H]5[C@H](O)[C@@H](O)[C@@H](O[C@H]6[C@H](O)[C@@H](O)[C@@H](O[C@H]7[C@H](O)[C@@H](O)[C@@H](O[C@H]8[C@H](O)[C@@H](O)[C@@H](O[C@H]1[C@H](O)[C@H]2O)O[C@@H]8COCC(C)O)O[C@@H]7COCC(C)O)O[C@@H]6COCC(C)O)O[C@@H]5COCC(C)O)O[C@@H]4COCC(C)O)O[C@@H]3COCC(C)O (stereo partly drawn) [HP-β-CD, hydroxypropyl-β-cyclodextrin]",toxicity in the same cell lines compared with calabadion 2,[5],very comparable
"[N-]=[N+]=[N-].[Na+] [SA, Sodium Azide, reference compound]","number of colonies, positive control","[1]; TA 1535, −S9, 1.5 μg Sodium Azide per plate",SA 446
same,"number of colonies, positive control","[2]; TA 100, −S9, 1.5 μg Sodium Azide per plate",SA 282
CC[C@H]1OC(=O)[C@H](C)[C@@H](O[C@H]2C[C@@](C)(OC)[C@@H](O)[C@H](C)O2)[C@H](C)[C@@H](O[C@@H]2O[C@H](C)C[C@H](N(C)C)[C@H]2O)[C@](C)(O)C[C@@H](C)C(=O)[C@H](C)[C@@H](O)[C@]1(C)O [erythromycin],toxicity in the same cell lines compared with calabadion 2,[5],very comparable
CCOC(=O)c1cncn1[C@H](C)c1ccccc1 [etomidate],plasma concentration at awakening,[6],0.28 µg/mL
same,plasma concentration at maintenance of sedation,[6],0.3 to 0.6 µg/mL
same,plasma concentration at awakening,[7],0.44 µg/mL
CNC1(c2ccccc2Cl)CCCCC1=O (stereo not drawn) [ketamine],plasma concentration at awakening,[6],1 µg/mL
same,plasma concentration at maintenance of sedation,[6],2 to 3 µg/mL
same,plasma concentration at awakening,[7],5 µg/mL
CNC[C@H](O)c1cccc(O)c1 [phenylephrine],effect on EEG power,[8],without effects on EEG power
same,effect on MAP,[8],significant MAP increases
